Assay results as given in PubChem BioAssay AID192 (DTP/NCI, 2004).
“And” between values parts separate entries of the source, which are not always exact repeats. Equal entries are not always repeated. Toxic doses and inconclusive results are not listed.

System: BDF1 mice, B16 melanoma ip, median survival T/C
Experiment: NCI In Vivo Anticancer Drug Screen. Data for tumor model B16 Melanoma (intraperitoneal) in B6D2F1 (BDF1) mice
Conditions: endpoint: median survival time, higher = longer survival
Outline: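 Antitumor activity is assessed in mice bearing a transplanted tumor, with survival or tumor size compared against vehicle-dosed controls and expressed as T/C.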

[1] = dose: 12.5 mg/kg/injection, schedule: Q01DX009 (ip), vehicle: water
[2] = dose: 25.0 mg/kg/injection, schedule: Q01DX009 (ip), vehicle: water
[3] = dose: 50.0 mg/kg/injection, schedule: Q01DX009 (ip), vehicle: water
[4] = dose: 100.0 mg/kg/injection, schedule: Q01DX009 (ip), vehicle: water
[5] = dose: 100.0 mg/kg/injection, schedule: Q04DX003 (ip), vehicle: Klucel (hydroxypropylcellulose) (HPC)
[6] = dose: 200.0 mg/kg/injection, schedule: Q04DX003 (ip), vehicle: Klucel (hydroxypropylcellulose) (HPC)
[7] = dose: 400.0 mg/kg/injection, schedule: Q04DX003 (ip), vehicle: Klucel (hydroxypropylcellulose) (HPC)
[8] = dose: 25.0 mg/kg/injection, schedule: Q01DX009 (ip), vehicle: saline with Tween-80
[9] = dose: 200.0 mg/kg/injection, schedule: Q01DX009 (ip), vehicle: saline with Tween-80
[10] = dose: 50.0 mg/kg/injection, schedule: Q01DX009 (ip), vehicle: Klucel (hydroxypropylcellulose) (HPC)
[11] = dose: 100.0 mg/kg/injection, schedule: Q01DX009 (ip), vehicle: Klucel (hydroxypropylcellulose) (HPC)
[12] = dose: 200.0 mg/kg/injection, schedule: Q01DX009 (ip), vehicle: Klucel (hydroxypropylcellulose) (HPC)
[13] = dose: 100.0 mg/kg/injection, schedule: Q01DX009 (ip), vehicle: saline with Tween-80
[14] = dose: 50.0 mg/kg/injection, schedule: Q01DX009 (ip), vehicle: saline with Tween-80
[15] = dose: 12.5 mg/kg/injection, schedule: Q01DX009 (ip), vehicle: Klucel (hydroxypropylcellulose) (HPC)
[16] = dose: 400.0 mg/kg/injection, schedule: Q01DX009 (ip), vehicle: Klucel (hydroxypropylcellulose) (HPC)
[17] = dose: 2.0 mg/kg/injection, schedule: Q01DX009 (ip), vehicle: saline

For `Cc1cc([N+](=O)[O-])c(S(N)(=O)=O)c([N+](=O)[O-])c1`, the T/C (dose: 6.25 mg/kg/injection, schedule: Q01DX009 (ip), vehicle: water) was 110 % of control, the T/C [1] was 100 % of control and the T/C [2] was 101 % of control. For the same molecule, the T/C [3] was 103 % of control and the T/C [4] was 101 % of control.
In the case of `O=C(/C=C/C(=O)Oc1c(Cl)cc(Cl)cc1Cl)Oc1c(Cl)cc(Cl)cc1Cl`, the T/C [5] is reported as 95 % of control, the T/C [6] is reported as 92 % of control and the T/C [7] is reported as 95 % of control.
For `O=C(O)C(CSC(c1ccccc1)c1ccccc1)NC(=O)C(c1ccccc1)c1ccccc1` (centres undefined), the T/C [5] was 102 % of control, the T/C [6] was 105 % of control and the T/C [7] was 92 % of control.
`COc1cc2ccc3c4cc5c(cc4c[n+](C)c3c2cc1OC)OCO5` was tested, and the T/C (dose: 10.0 mg/kg/injection, schedule: Q01DX009 (ip), vehicle: Klucel (hydroxypropylcellulose) (HPC)) was 104 % of control.
`O=C1C(=O)c2ccccc2C(O)=C1CCCc1ccc(C2CCCCC2)cc1` was tested, and the T/C [8] was 104 % of control and the T/C [9] was 88 % of control.
In the case of `COc1ccc(NC(=O)Oc2ccccc2Cc2ccccc2)cc1`, the T/C [10] is reported as 96 % of control, the T/C (dose: 50.0 mg/kg/injection, schedule: Q04DX003 (ip), vehicle: Klucel (hydroxypropylcellulose) (HPC)) is reported as 96 % of control and the T/C [11] is reported as 93 % of control. The T/C [5] was 96 % of control, the T/C [12] was 100 % of control and the T/C [6] was 93 % of control.
`O=[N+]([O-])c1ccc2ccccc2c1I` was tested, and the T/C [13] was 101 % of control, the T/C [9] was 103 % of control and the T/C (dose: 400.0 mg/kg/injection, schedule: Q01DX009 (ip), vehicle: saline with Tween-80) was 99 % of control.
`CCCCOC(=O)c1ccc(NC(=O)Nc2ccccc2)cc1` was tested, and the T/C [8] was 93 % of control, the T/C [14] was 98 % of control and the T/C [13] was 93 % of control.
For `CC(C)NNC(=O)c1ccccc1N`, the T/C [15] was 100 % of control, the T/C [10] was 87 % of control and the T/C [11] was 95 % of control. For the same molecule, the T/C [12] was 97 % of control.
`Cc1ccc(S(=O)(=O)N/N=C/c2ccccc2Cl)cc1` was tested, and the T/C (dose: 1.56 mg/kg/injection, schedule: Q01DX009 (ip), vehicle: other) was 98 % of control, the T/C (dose: 3.13 mg/kg/injection, schedule: Q01DX009 (ip), vehicle: other) was 99 % of control and the T/C (dose: 6.25 mg/kg/injection, schedule: Q01DX009 (ip), vehicle: other) was 96 % of control. The T/C [15] was 91 % of control, the T/C (dose: 12.5 mg/kg/injection, schedule: Q01DX009 (ip), vehicle: other) was 90 % of control and the T/C [10] was 89 % of control. For the same molecule, the T/C [11] was 86 % of control.
For `COc1cc2ccc3c[n+](C)ccc3c2cc1OC`, the T/C [1] was 101 % of control, the T/C [2] was 106 % of control and the T/C [3] was 95 % of control. For the same molecule, the T/C [4] was 101 % of control.
In the case of `Cc1ccc(Cl)cc1NC(=O)c1ccc(Cl)cc1`, the T/C [11] is reported as 94 % of control, the T/C [12] is reported as 101 % of control and the T/C [16] is reported as 116 % of control.
`Cc1ccc(S(=O)(=O)N/N=C/C(=O)O)cc1` was tested, and the T/C (dose: 0.78 mg/kg/injection, schedule: Q01DX009 (ip), vehicle: saline with Tween-80) was 108 % of control, the T/C (dose: 1.56 mg/kg/injection, schedule: Q01DX009 (ip), vehicle: saline with Tween-80) was 110 % of control and the T/C (dose: 3.12 mg/kg/injection, schedule: Q01DX009 (ip), vehicle: saline with Tween-80) was 104 % of control. The T/C (dose: 6.25 mg/kg/injection, schedule: Q01DX009 (ip), vehicle: Klucel (hydroxypropylcellulose) (HPC)) was 103 % of control and 111 % of control, the T/C (dose: 6.25 mg/kg/injection, schedule: Q01DX009 (ip), vehicle: saline with Tween-80) was 104 % of control and 112 % of control and the T/C [15] was 121 % of control. The T/C (dose: 12.5 mg/kg/injection, schedule: Q01DX009 (ip), vehicle: saline with Tween-80) was 111 % of control, the T/C (dose: 15.0 mg/kg/injection, schedule: Q01DX009 (ip), vehicle: saline with Tween-80) was 112 % of control and the T/C (dose: 17.5 mg/kg/injection, schedule: Q01DX009 (ip), vehicle: Klucel (hydroxypropylcellulose) (HPC)) was 118 % of control. The T/C (dose: 23.0 mg/kg/injection, schedule: Q01DX009 (ip), vehicle: saline with Tween-80) was 103 % of control, the T/C (dose: 53.0 mg/kg/injection, schedule: Q01DX009 (ip), vehicle: saline with Tween-80) was 100 % of control and the T/C (dose: 70.0 mg/kg/injection, schedule: Q01DX009 (ip), vehicle: Klucel (hydroxypropylcellulose) (HPC)) was 151 % of control. For the same molecule, the T/C (dose: 70.0 mg/kg/injection, schedule: Q01DX009 (ip), vehicle: saline with Tween-80) was 115 % of control.
In the case of `CO[C@@]12[C@@H]3N[C@@H]3CN1C1=C(C(=O)C(NCc3ccco3)=C(C)C1=O)[C@@H]2COC(N)=O`, the T/C (dose: 0.13 mg/kg/injection, schedule: Q01DX001 (ip), vehicle: distilled water + Tween-80) is reported as 96 % of control, the T/C (dose: 0.25 mg/kg/injection, schedule: Q01DX001 (ip), vehicle: distilled water + Tween-80) is reported as 101 % of control and the T/C (dose: 0.5 mg/kg/injection, schedule: Q01DX001 (ip), vehicle: distilled water + Tween-80) is reported as 111 % of control. For the same molecule, the T/C (dose: 1.0 mg/kg/injection, schedule: Q01DX001 (ip), vehicle: distilled water + Tween-80) was 123 % of control, the T/C (dose: 6.0 mg/kg/injection, schedule: Q04DX003 (ip), vehicle: distilled water + Tween-80) was 205 % of control and the T/C (dose: 12.0 mg/kg/injection, schedule: Q04DX003 (ip), vehicle: distilled water + Tween-80) was 305 % of control. For the same molecule, the T/C (dose: 24.0 mg/kg/injection, schedule: Q04DX003 (ip), vehicle: distilled water + Tween-80) was 315 % of control.
For `O=C(Oc1ccc(-c2ccc(Br)cc2)cc1)c1ccco1`, the T/C [14] was 88 % of control.
`CN(C)CCCNc1cc(O)c2c(c1O)C(=O)c1ccccc1C2=O` was tested, and the T/C [3] was 116 % of control and the T/C [4] was 107 % of control.
For `O=P(N1CC1)(N1CC1)N1CC1`, the T/C (dose: 0.75 mg/kg/injection, schedule: Q01DX009 (ip), vehicle: saline with Tween-80) was 120 % of control, the T/C (dose: 1.0 mg/kg/injection, schedule: Q01DX009 (ip), vehicle: saline) was 110 % of control and the T/C [17] was 120 % of control.
`FC(F)(F)c1ccc2c(c1)N(CCCN1CCN(CCOc3ccccc3)CC1)c1ccccc1S2` was tested, and the T/C [17] was 121 % of control.
For `C[C@H](N)C(=O)N[C@@H]1[C@H]2C(=C(O)C[C@@H](O)[C@@H]2O)C(=O)O[C@@H]1C`, the T/C (dose: 150.0 mg/kg/injection, schedule: Q01DX009 (ip), vehicle: saline) was 100 % of control, the T/C (dose: 300.0 mg/kg/injection, schedule: Q01DX009 (ip), vehicle: saline) was 102 % of control and the T/C (dose: 600.0 mg/kg/injection, schedule: Q01DX009 (ip), vehicle: saline) was 106 % of control. The T/C (dose: 1200.0 mg/kg/injection, schedule: Q01DX009 (ip), vehicle: saline) was 116 % of control.
With `Cc1c2cc3c(c1O)C(=O)CC(O3)c1ccc(O)c(c1)-c1ccc(O)c(c1)C(=O)OCC1OC(O2)C(O)C(O)C1O` (centres undefined) the T/C (dose: 0.13 mg/kg/injection, schedule: Q01DX009 (ip), vehicle: Klucel (hydroxypropylcellulose) (HPC)) was 91 % of control, the T/C (dose: 0.25 mg/kg/injection, schedule: Q01DX009 (ip), vehicle: Klucel (hydroxypropylcellulose) (HPC)) was 94 % of control and the T/C (dose: 0.5 mg/kg/injection, schedule: Q01DX009 (ip), vehicle: Klucel (hydroxypropylcellulose) (HPC)) was 95 % of control. The T/C (dose: 1.0 mg/kg/injection, schedule: Q01DX009 (ip), vehicle: Klucel (hydroxypropylcellulose) (HPC)) was 94 % of control.
For `CNCCOc1ccccc1`, the T/C [8] was 110 % of control, the T/C [14] was 101 % of control and the T/C [13] was 101 % of control.
For `CCCCCCCCCCCC(=O)CCC`, the T/C [11] was 93 % of control, the T/C [12] was 91 % of control and the T/C [16] was 90 % of control.
With `C[Se]c1ncnc2c1c(C#N)cn2C1OC(CO)C(O)C1O` (centres undefined) the T/C (dose: 3.12 mg/kg/injection, schedule: Q01DX009 (ip), vehicle: Klucel (hydroxypropylcellulose) (HPC)) was 92 % of control, the T/C [15] was 97 % of control and the T/C (dose: 25.0 mg/kg/injection, schedule: Q01DX009 (ip), vehicle: Klucel (hydroxypropylcellulose) (HPC)) was 90 % of control.
`CN1CC[C@]23c4c5ccc(O)c4O[C@H]2C(=O)CC[C@H]3[C@H]1C5` was tested, and the T/C (dose: 12.5 mg/kg/injection, schedule: Q01DX005 (iv), vehicle: saline) was 86 % of control, the T/C (dose: 12.5 mg/kg/injection, schedule: Q01DX009 (ip), vehicle: saline) was 94 % of control and the T/C (dose: 25.0 mg/kg/injection, schedule: Q01DX005 (iv), vehicle: saline) was 111 % of control. The T/C (dose: 25.0 mg/kg/injection, schedule: Q01DX009 (ip), vehicle: saline) was 98 % of control, the T/C (dose: 50.0 mg/kg/injection, schedule: Q01DX005 (iv), vehicle: saline) was 95 % of control and the T/C (dose: 50.0 mg/kg/injection, schedule: Q01DX009 (ip), vehicle: saline) was 100 % of control.
